Measured values published in patent US11309064B2, “Individualized dosing technique with multiple variables” (priority 2017, dated 2022).

Legend:
INR [1] = assay: Software readout, predicted INR for a Warfarin dose (Example 5); parameters: species or system patient; conditions: 5 mg by mouth every 24 hours
Description: The nurse takes their INR lab value and enters it into a software program. The health care provider has the software open on a computer or a hand held device. Then the provider asks the patient the relevant questions, does a physical exam and inputs this into the electronic form.

INR [2] = assay: INR and individual INR/Warfarin dose equation (Examples 7 and 8)
INR [3] = assay: INR lab value at clinic visits under Warfarin (Example 4); format: in vivo, patient
[4] = test system: patients with nonvalvular AF; conditions: long-term anticoagulation therapy; cited from earlier work
plasma proteins = conditions: cited from earlier work
blood glucose = assay: Software readout, predicted blood glucose for an insulin dose (Example 6); parameters: species or system patient; conditions: 100 units Subcutaneous every 24 hrs
Description: A diabetes patient tells the health care provider their average daily blood glucose value. A health care provider can do this over a phone or via the Internet. A physical exam, review of biological systems, and medicine reconciliation is done and the information is put into software program. Then, for example, the software may have readout of “Given the data collected, the dose of 100 units of insulin Subcutaneous every 24 hrs will result in blood glucose of between 90-150 with a 50%-90% possibility if compliant with medications and no other variables change.”

## CC(=O)CC(c1ccccc1)c1c(O)c2ccccc2oc1=O (racemic) [Warfarin]
INR [1]
  predicted INR: 2-3
INR [2]; Lasix 30 mg/day and Warfarin 7.5 mg/day
  INR: ~3
INR [2]; Warfarin 7.5 mg, 1 week after start of amoxicillin 500 mg / clavulanate 250 mg 3 times a day
  INR: 2.5
INR [2]; Warfarin 7.5 mg, next office visit after amoxicillin/clavulanate
  INR: 6
INR [2]; a week later again
  INR: 9
INR [2]; after Lasix increased to 60 mg/day, Warfarin dose from earlier formula
  observed INR: 4-5
INR [2]; after Warfarin stopped, blood transfusion and a dose of Vitamin K
  INR: 3.5
INR [3]; 1 month later on 5 mg Warfarin, Lasix 40 mg every 24 hours, over 3 glasses of wine last evening
  INR: 4.3
INR [3]; 1 week on 7 mg Warfarin by mouth everyday, with HCTZ 25 mg, Doxycycline 100 mg every 12 hours, some aspirin
  INR: 3.4
INR [3]; 2 weeks after restart at 5 mg Warfarin, Lasix 60 mg a day, 73 kg, antidepressant
  INR: 2.3
INR [3]; 2 weeks on 5 mg Warfarin every day, HCTZ 25 mg only
  INR: 2.5
[4]
  reduction of the risk for ischemic stroke: approximately 68%

## COc1cc([C@@H]2c3cc4c(cc3[C@@H](O[C@@H]3O[C@@H]5CO[C@@H](C)O[C@H]5[C@H](O)[C@H]3O)[C@H]3COC(=O)[C@H]23)OCO4)cc(OC)c1O [etoposide]
Plasma proteins
  protein binding: Highly protein bound. Interacts with other protein-bound drugs

## insulin
Blood glucose
  predicted blood glucose: 90-150

## CC/C(=C(\c1ccccc1)c1ccc(OCCN(C)C)cc1)c1ccccc1 [Tamoxifen]
Plasma proteins
  protein binding: Tamoxifen and Warfarin are highly protein bound. Tamoxifen

## CC(=O)O[C@H]1C(=O)[C@@]2(C)[C@H]([C@H](OC(=O)c3ccccc3)[C@]3(O)C[C@H](OC(=O)[C@H](O)[C@@H](NC(=O)c4ccccc4)c4ccccc4)C(C)=C1C3(C)C)[C@]1(OC(C)=O)CO[C@@H]1C[C@@H]2O [paclitaxel]
Plasma proteins
  protein binding: Highly protein bound. Interacts with other protein-bound drugs
